Reference: US8071625B2, “Certain chemical entities, compositions, and methods” (Cytokinetics, Inc., priority 2006, dated 2011)

Molecular target: T1, crosslinked smooth muscle actomyosin (chicken gizzard smooth muscle myosin subfragment-1 crosslinked to cardiac or skeletal actin) (Gallus gallus, UniProt P10587)
T1 construct: chicken gizzard smooth muscle myosin subfragment-1; from tissue; host or cells: chicken gizzard
Experiment: Lead optimization pyruvate kinase/horseradish peroxidase/pyruvate oxidase-coupled ATPase assay (compound dose response)
Type: biochemical
Details: read-out: IC50 Arithmetic Mean
Summary of the method: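 The ATPase used chicken gizzard smooth muscle myosin S1 chemically crosslinked to cardiac or skeletal actin, titrated to a set hydrolysis rate. It was coupled via pyruvate kinase/pyruvate oxidase/HRP in 12 mM K-PIPES pH 7.00 (22 °C) with 0.15 mM ATP, 2 mM MgCl2, 100 mM KCl and 0.1 mM Amplex Red. Fluorescence was read at ex 480/em 615 nm, and IC50 came from a 4-parameter fit.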

Structure (SMILES) | IC50
CCc1ccc(NC(=O)OCCN(CCN(C)C(=O)OC(C)(C)C)C(=O)NCc2ccccc2Cl)cc1 [(tert-butoxy)-N-[2-({[(2-chlorophenyl)methyl]amino}-N-{2-[N-(4-ethylphenyl)carbamoyloxy]ethyl}carbonylamino)ethyl]-N-methylcarboxamide] | 18200 nM
CCc1ccc(NC(=O)OCC2(C(=O)NCc3ccccc3Cl)CCN(C(=O)CCCNC(=O)OC(C)(C)C)CC2)cc1 [(tert-butoxy)-N-[4-(4-{N-[(2-chlorophenyl)methyl]carbamoyl}-4-{[N-(4-ethylphenyl)carbamoyloxy]methyl}piperidyl)-4-oxobutyl]carboxamide] | 481 nM
CCc1ccc(NC(=O)OCC2(C(=O)NCc3ccccn3)CCN(C(=O)CN)CC2)cc1 [({1-(2-aminoacetyl)-4-[N-(2-pyridylmethyl)carbamoyl](4-piperidyl)}methoxy)-N-(4-ethylphenyl)carboxamide] | 7220 nM
CCc1ccc(NC(=O)OCC2(C(=O)NCc3ncc[nH]3)CCN(C(=O)CN)CC2)cc1 [({1-(2-aminoacetyl)-4-[N-(imidazol-2-ylmethyl)carbamoyl](4-piperidyl)}methoxy)-N-(4-ethylphenyl)carboxamide] | 18500 nM
CCc1ccc(NC(=O)OCC2(C(=O)NCc3cccc4ccccc34)CCN(C(=O)CN)CC2)cc1 [({1-(2-aminoacetyl)-4-[N-(naphthylmethyl)carbamoyl](4-piperidyl)}methoxy)-N-(4-ethylphenyl)carboxamide] | 439 nM
CCc1ccc(NC(=O)OCC2(C(=O)NCc3ccccc3Cl)CCN(C(=O)NCCN)CC2)cc1 [N-(2-aminoethyl)(4-{N-[(2-chlorophenyl)methyl]carbamoyl}-4-{[N-(4-ethylphenyl)carbamoyloxy]methyl}piperidyl)carboxamide] | 159 nM
CCc1ccc(NC(=O)OCCN(CCN)C(=O)NCc2ccccc2Cl)cc1 [N-(2-aminoethyl){[(2-chlorophenyl)methyl]amino}-N-{2-[N-(4-ethylphenyl)carbamoyloxy]ethyl}carboxamide] | 2830 nM
CCc1ccc(NC(=O)OCCN(CCCN)C(=O)NCc2ccccc2Cl)cc1 [N-(3-aminopropyl){[(2-chlorophenyl)methyl]amino}-N-{2-[N-(4-ethylphenyl)carbamoyloxy]ethyl}carboxamide] | 2540 nM
CCc1ccc(NC(=O)OCCN(CCCCCN)C(=O)NCc2ccccc2Cl)cc1 [N-(5-aminopentyl){[(2-chlorophenyl)methyl]amino}-N-{2-[N-(4-ethylphenyl)carbamoyloxy]ethyl}carboxamide] | 487 nM
CCc1ccc(NC(=O)OC[C@@H]2C[C@@H](NC(=O)CN)CN2C(=O)NCc2ccccc2Cl)cc1 [N-((5S,3R)-1-{N-[(2-chlorophenyl)methyl]carbamoyl}-5-{[N-(4-ethylphenyl)carbamoyloxy]methyl}pyrrolidin-3-yl)-2-aminoacetamide] | 234 nM
CCc1ccc(NC(=O)OC[C@@H]2C[C@@H](NC(C)=O)CN2C(=O)NCc2ccccc2Cl)cc1 [N-((5S,3R)-1-{N-[(2-chlorophenyl)methyl]carbamoyl}-5-{[N-(4-ethylphenyl)carbamoyloxy]methyl}pyrrolidin-3-yl)acetamide] | 1860 nM
CCc1ccc(NC(=O)NCCN(C)C(=O)NCc2ccccc2Cl)cc1 [N-[2-({[(2-chlorophenyl)methyl]amino}-N-methylcarbonylamino)ethyl][(4-ethylphenyl)amino]carboxamide] | 6750 nM
CCc1ccc(CC(=O)NCC2(C(=O)NCc3ccccc3Cl)CCN(C(=O)CN)CC2)cc1 [N-[(1-(2-aminoacetyl)-4-{N-[(2-chlorophenyl)methyl]carbamoyl}(4-piperidyl))methyl]-2-(4-ethylphenyl)acetamide] | 14900 nM
CCc1ccc(NC(=O)N(CCN)CC2(C(=O)NCc3ccccc3Cl)CCN(C(=O)CN)CC2)cc1 [N-[(1-(2-aminoacetyl)-4-{N-[(2-chlorophenyl)methyl]carbamoyl}(4-piperidyl))methyl]-N-(2-aminoethyl)[(4-ethylphenyl)amino]carboxamide] | 16400 nM
